Assay results as given in ChEMBL document CHEMBL1201862, “PubChem BioAssay data set” (2004).
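Five concentrations, 48 hours, 96-well plates. GI50 is the concentration that inhibits growth by half.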 Activity calls are given as the source filed them. Cut-off read from the data, not from the text of the source: active = GI50 up to about 1.1 µM and inactive = higher.

Columns and labels:
Assay in all cases: growth of human tumour cells (NCI), 48 h
A549 = system: A549
CAKI-1 = system: CAKI-1
COLO 205 = system: COLO 205
HCC 2998 = system: HCC 2998
HCT-15 = system: HCT-15
LOX IMVI = system: LOX IMVI
MCF7 = system: MCF7
MDA-MB-231 = system: MDA-MB-231
NCI-H23 = system: NCI-H23
OVCAR-3 = system: OVCAR-3
PC-3 = system: PC-3
RPMI-8226 = system: RPMI-8226
SF-268 = system: SF-268
SK-MEL-28 = system: SK-MEL-28
SK-MEL-2 = system: SK-MEL-2
SK-MEL-5 = system: SK-MEL-5
T47D = system: T47D
U-251 = system: U-251
UACC-62 = system: UACC-62
M19-MEL = system: M19-MEL

SMILES	GI50 (A549)	GI50 (CAKI-1)	GI50 (COLO 205)	GI50 (HCC 2998)	GI50 (HCT-15) [µM]	GI50 (LOX IMVI)	GI50 (MCF7)	GI50 (MDA-MB-231)	GI50 (NCI-H23)	GI50 (OVCAR-3)	GI50 (PC-3)	GI50 (RPMI-8226)	GI50 (SF-268)	GI50 (SK-MEL-28)	GI50 (SK-MEL-2)	GI50 (SK-MEL-5)	GI50 (T47D)	GI50 (U-251)	GI50 (UACC-62)	GI50 (M19-MEL)
CC(C)Cc1cc2c(cc1O)CCC1C2CC[C@@]2(C)C1CC[C@@H]2O (some centres not stated)	6.84 µM (inactive)	16 µM (inactive)	15.2 µM (inactive)	13.1 µM (inactive)	7.21	6.22 µM (inactive)	8.43 µM (inactive)	7.59 µM (inactive)	8.39 µM (inactive)	5.57 µM (inactive)	6.35 µM (inactive)	3.74 µM (inactive)	10.8 µM (inactive)	10.6 µM (inactive)	6.71 µM (inactive)	7.45 µM (inactive)	5.04 µM (inactive)	10.7 µM (inactive)	7.71 µM (inactive)	–
CCOC(=O)C(Cc1ccc(O)cc1)Nc1nc(=O)c2c(=O)oc(Cl)cc2o1 (configuration not stated)	16.1 µM (inactive)	4.73 µM (inactive)	8.49 µM (inactive)	6.59 µM (inactive)	4.33	4.62 µM (inactive)	4.16 µM (inactive)	6.1 µM (inactive)	10.9 µM (inactive)	6.78 µM (inactive)	8.93 µM (inactive)	2.67 µM (inactive)	3.82 µM (inactive)	4.13 µM (inactive)	12.5 µM (inactive)	8.15 µM (inactive)	4.61 µM (inactive)	7.19 µM (inactive)	11.4 µM (inactive)	–
Cc1cc(O)nc(NNC(C#N)c2cccc([N+](=O)[O-])c2)n1 (configuration not stated)	> 100 µM (inactive)	> 100 µM (inactive)	> 100 µM (inactive)	–	> 100	> 100 µM (inactive)	–	–	> 100 µM (inactive)	> 100 µM (inactive)	–	> 100 µM (inactive)	> 100 µM (inactive)	> 100 µM (inactive)	> 100 µM (inactive)	> 100 µM (inactive)	–	> 100 µM (inactive)	> 100 µM (inactive)	> 100 µM (inactive)
COc1cc(CNC(=O)CCCCCCCCCCSSCCCCCCCCCCC(=O)NCc2ccc(O)c(OC)c2)ccc1O	> 10 µM (inactive)	> 10 µM (inactive)	> 10 µM (inactive)	> 10 µM (inactive)	> 10	> 10 µM (inactive)	> 10 µM (inactive)	> 10 µM (inactive)	> 10 µM (inactive)	> 10 µM (inactive)	> 10 µM (inactive)	> 10 µM (inactive)	> 10 µM (inactive)	> 10 µM (inactive)	> 10 µM (inactive)	> 10 µM (inactive)	> 10 µM (inactive)	> 10 µM (inactive)	> 10 µM (inactive)	–
CC1=C2C(=O)c3ccccc3C(=O)[C@H]2[C@H]2CCO[C@H]2O1	32.2 µM (inactive)	22.2 µM (inactive)	42.2 µM (inactive)	19.4 µM (inactive)	25.6	22.3 µM (inactive)	0.3 µM (active)	24.2 µM (inactive)	20.1 µM (inactive)	19.1 µM (inactive)	30.3 µM (inactive)	24.4 µM (inactive)	17.7 µM (inactive)	24.3 µM (inactive)	18.8 µM (inactive)	15.6 µM (inactive)	34.7 µM (inactive)	24.2 µM (inactive)	20.4 µM (inactive)	–
COc1cc(C(C#N)NNC(=O)Cc2ccccc2)cc(OC)c1OC (configuration not stated)	> 100 µM (inactive)	> 100 µM (inactive)	> 100 µM (inactive)	–	> 100	> 100 µM (inactive)	–	–	> 100 µM (inactive)	> 100 µM (inactive)	–	> 100 µM (inactive)	> 100 µM (inactive)	> 100 µM (inactive)	> 100 µM (inactive)	> 100 µM (inactive)	–	> 100 µM (inactive)	> 100 µM (inactive)	> 100 µM (inactive)
CNC1Cc2c[nH]c3cccc(c23)C12C=C(C)C(=O)O2 (configuration not stated)	> 100 µM (inactive)	> 100 µM (inactive)	> 100 µM (inactive)	> 100 µM (inactive)	> 100	> 100 µM (inactive)	> 100 µM (inactive)	> 100 µM (inactive)	> 100 µM (inactive)	> 100 µM (inactive)	> 100 µM (inactive)	> 100 µM (inactive)	> 100 µM (inactive)	> 100 µM (inactive)	> 100 µM (inactive)	> 100 µM (inactive)	> 100 µM (inactive)	> 100 µM (inactive)	> 100 µM (inactive)	–
Cc1cc(O)nc(NNC(C#N)c2ccco2)n1 (configuration not stated)	> 100 µM (inactive)	> 100 µM (inactive)	> 100 µM (inactive)	–	> 100	> 100 µM (inactive)	–	–	> 100 µM (inactive)	> 100 µM (inactive)	–	> 100 µM (inactive)	> 100 µM (inactive)	> 100 µM (inactive)	> 100 µM (inactive)	> 100 µM (inactive)	–	> 100 µM (inactive)	> 100 µM (inactive)	> 100 µM (inactive)
CN/C(=N\N=C1/C(=O)Nc2ccccc21)SCC(=O)c1ccc(Br)cc1	5.01 µM (inactive)	28.8 µM (inactive)	41.8 µM (inactive)	5.26 µM (inactive)	17.2	8.38 µM (inactive)	3.48 µM (inactive)	5.81 µM (inactive)	15.6 µM (inactive)	7.08 µM (inactive)	10.3 µM (inactive)	5.58 µM (inactive)	18.6 µM (inactive)	15 µM (inactive)	50 µM (inactive)	22.9 µM (inactive)	9.48 µM (inactive)	5.21 µM (inactive)	50.1 µM (inactive)	–
N#Cc1c(-c2ccccc2)cc(Nc2ccc(F)cc2)n2c1nc1ccccc12	2.28 µM (inactive)	3.2 µM (inactive)	1.58 µM (inactive)	3.75 µM (inactive)	3.26	3.33 µM (inactive)	2.18 µM (inactive)	3.83 µM (inactive)	3.18 µM (inactive)	3.13 µM (inactive)	1.83 µM (inactive)	3.56 µM (inactive)	3.72 µM (inactive)	8.32 µM (inactive)	1.43 µM (inactive)	1.24 µM (inactive)	1.88 µM (inactive)	2.06 µM (inactive)	1.84 µM (inactive)	–
COC12C=CC(CC1)c1c(O)ccc(O)c12 (configuration not stated)	> 92.5 µM (inactive)	> 80.9 µM (inactive)	22.6 µM (inactive)	99.3 µM (inactive)	29.7	–	–	–	> 86.1 µM (inactive)	21.8 µM (inactive)	–	50.8 µM (inactive)	> 31.6 µM (inactive)	87.5 µM (inactive)	42.9 µM (inactive)	45 µM (inactive)	–	38.9 µM (inactive)	27.3 µM (inactive)	22.5 µM (inactive)
Nc1nc(S)c2c(N)n[nH]c2c1C(=O)Nc1ccccc1	> 100 µM (inactive)	> 100 µM (inactive)	> 100 µM (inactive)	> 100 µM (inactive)	> 100	> 100 µM (inactive)	> 100 µM (inactive)	> 100 µM (inactive)	> 100 µM (inactive)	> 100 µM (inactive)	> 100 µM (inactive)	> 100 µM (inactive)	> 100 µM (inactive)	> 100 µM (inactive)	> 100 µM (inactive)	> 100 µM (inactive)	> 100 µM (inactive)	> 100 µM (inactive)	> 100 µM (inactive)	–
